“Also recorded” adds a separate entry of the source.
Columns and labels:
[1] = tested on: CHO-K1 cells (7WD10 cells) that stably expressed APP protein; test: Aβ protein production inhibition experiment in 7WD10 cells (sAPPβ, βCTF, Aβ); type: cell-based; conditions: polypeptide 25 μM and 50 μM; cells also expressing st6gal
Procedure: (§1) An experiment was conducted wherein #1, #2, and #4 polypeptides were reacted with CHO-K1 cells (7WD10 cells) that stably expressed APP protein and transiently expressed Notch to confirm the production of Aβ protein and cleavage of Notch protein.

[2] = target: γ-secretase against Notch (Mus musculus, UniProt Q01705, V1997L); test: γ-Secretase activity inhibition experiment in vitro, Notch-FLAG substrate; type: biochemical; conditions: polypeptide 1, 5, 10, 20, and 50 μM
Chain of γ-secretase against Notch (Q01705 with tags, fused parts or gaps V1997L): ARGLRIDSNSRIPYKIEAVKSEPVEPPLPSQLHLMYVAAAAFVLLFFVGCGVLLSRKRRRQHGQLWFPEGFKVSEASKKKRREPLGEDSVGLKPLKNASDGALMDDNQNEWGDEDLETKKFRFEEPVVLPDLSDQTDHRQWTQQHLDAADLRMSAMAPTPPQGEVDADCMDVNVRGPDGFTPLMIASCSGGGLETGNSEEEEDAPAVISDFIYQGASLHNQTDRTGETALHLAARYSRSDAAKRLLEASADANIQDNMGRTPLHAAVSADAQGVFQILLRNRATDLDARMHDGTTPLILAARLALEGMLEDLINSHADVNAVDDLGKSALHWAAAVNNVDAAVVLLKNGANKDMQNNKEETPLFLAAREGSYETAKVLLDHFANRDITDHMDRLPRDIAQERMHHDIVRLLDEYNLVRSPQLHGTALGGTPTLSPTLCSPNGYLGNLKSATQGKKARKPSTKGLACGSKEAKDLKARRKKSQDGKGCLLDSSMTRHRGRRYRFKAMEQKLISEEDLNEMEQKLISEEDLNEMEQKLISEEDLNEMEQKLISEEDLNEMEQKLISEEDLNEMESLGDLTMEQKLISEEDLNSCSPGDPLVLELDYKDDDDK
Procedure: (§2) A polypeptide having βCTF (C99-FLAG: SEQ ID NO: 16) and mouse-derived Notch protein having a FLAG peptide at the C-terminal side (modification of NCBI Accession No. Q01705.2; SEQ ID NO: 17; hereunder referred to as “Notch”) shown in FIG. 2(A) were each made into a solution having a final concentration of 50 nM.
(§3) To these solutions, 9-7 polypeptide, 6-5 polypeptide, #1 polypeptide, #2 polypeptide, #3 polypeptide, and #4 polypeptide were added in such a manner that the final concentrations were 50 μM, followed by reacting with 50 μL of CHAPSO-solubilized membrane fraction (γ-secretase-containing fraction) for 4 hours. The reaction temperature was 37° C. As a negative control experiment, DMSO was used in place of the six types of polypeptides described above.
(§4) Each sample after completion of the reaction was measured in the following manner. As shown in FIG. 2(A), a sample using C99-FLAG was subjected to Western blotting using a monoclonal antibody (82E-1) that specifically recognizes the N terminal of C99-FLAG, and the amount of Aβ40 protein produced by the cleavarage by γ-secretase was measured. In contrast, the reaction sample using Notch-FLAG was subjected to Western blotting using an anti-FLAG monoclonal antibody, and the amount of NICD produced to the separete by γ-secretase was also measured. FIG. 2(B) and FIG. 2(C) show the results.
(§5) An experiment was conducted in the same manner as in Experimental Example 1 described above, except that only #1 polypeptide was used and the amount of #1 polypeptide was selected so that the final concentrations were 0.5, 1, 5, 10, 20, and 50 μM.
(§6) An experiment was conducted in the same manner as in Experimental Example 1 described above, except that S4 polypeptide was used as the polypeptide, and each addition amount was set in such a manner that the final concentrations were 1, 5, 10, 20, and 50 μM. In this Experimental Example, #4 polypeptide was added in such a manner that the final result was 50 μM.

[3] = target: γ-secretase against βCTF (C99-FLAG) (Homo sapiens, UniProt P05067); test: γ-Secretase activity inhibition experiment in vitro, C99-FLAG substrate; type: biochemical; conditions: polypeptide 1, 5, 10, 20, and 50 μM
Chain of γ-secretase against βCTF (C99-FLAG) (P05067 with tags, fused parts or gaps): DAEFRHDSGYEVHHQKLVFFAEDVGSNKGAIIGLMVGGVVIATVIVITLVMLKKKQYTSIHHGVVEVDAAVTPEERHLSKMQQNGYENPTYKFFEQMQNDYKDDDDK
Procedure: as §2, §3, §4, §5, §6

[4] = tested on: sialyltransferase (st6gal), substrate of β-secretase, in 7WD10 cells; test: Cleavage of sialyltransferase (st6gal) in 7WD10 cells; type: cell-based; conditions: polypeptide 25 μM and 50 μM
Procedure: An experiment was conducted in the same manner as Experimental Example 6 except that only S4 polypeptide was used as the polypeptide; the S4 polypeptide was added to have the final concentrations of 25 μM and 50 μM; the cell used in this experiment was CHO-K1 cell (7WD10 cell) that expressed APP protein and transiently expressed Notch and sialyltransferase (st6gal), which is the substrate of β-secretase; and confirmation of cleavage by sialyltransferase was conducted in addition to the confirmation of the production of Aβ protein and cleavage of Notch protein.

[5] = target: β-secretase against APP (APP-EQ-FLAG) (Homo sapiens, UniProt P05067); test: β-Secretase activity inhibition experiment in vitro, APP-EQ-FLAG substrate; type: biochemical; conditions: polypeptide 1, 5, 10, 20, 50, and 100 μM
Chain of β-secretase against APP (APP-EQ-FLAG) (P05067 with tags, fused parts or gaps): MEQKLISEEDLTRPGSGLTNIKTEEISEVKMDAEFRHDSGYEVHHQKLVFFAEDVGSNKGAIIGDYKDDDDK
Procedure: A solution containing the polypeptide having APP (APP-EQ-FLAG: SEQ ID NO: 18) as shown in FIG. 5(A) was prepared in such a manner that its final concentration was 50 nM.
To this solution, 9-7 polypeptide, 6-5 polypeptide, #1 polypeptide, #2 polypeptide, #3 polypeptide, #4 polypeptide, #5 polypeptide, #6 polypeptide, #7 polypeptide, #8 polypeptide, #9 polypeptide, and #10 polypeptide were added in such a manner that each solution had the final concentration of 50 μM, followed by reacting with 50 μL β-secretase (0.02 U/μL) for 4 hours. The reaction temperature was 37° C. As a negative control experiment, DMSO was used in place of the 12 types of polypeptides mentioned above.
After completion of the reaction, each sample was subjected to Western blotting using a monoclonal antibody (82E-1) that specifically recognizes the N terminal of APP-EQ-FLAG as shown in FIG. 5(A). Thereafter, the amount of Aβ33-FLAG protein separated by β-secretase was measured.
An experiment was conducted in the same manner as Experimental Example 4 described above except that S4 and #4 polypeptides were used as the polypeptide and the amounts of these polypeptides added were adjusted so that the final concentrations were 1, 5, 10, 20, 50, and 100 μM.

[6] = tested on: Notch transiently expressed in CHO-K1 cells (7WD10 cells); test: Cleavage of Notch protein (NICD) in 7WD10 cells; type: cell-based; conditions: polypeptide 25 μM and 50 μM; cells also expressing st6gal
Procedure: as §1

Question: What does the source list for FGBTWDYWVYR [S4]?
Answer: Aβ protein (intracellular Aβ) in the cell lysate [1]: decreased; amount of Aβ protein (released Aβ) in the cell culture medium [1]: reduced; sAPPβ production amount in the cell culture medium [1]: reduced; cleavage activity of γ-secretase against Notch (NICD) [2]: not inhibited; cleavage activity of γ-secretase against βCTF [3]: inhibits more intensely in a concentration-dependent manner the cleavage activity of γ-secretase against βCTF; st6gal production amount in the cell culture medium [4]: not decreased; cleavage activity of β-secretase against APP [5]: inhibited the cleavage activity of β-secretase against APP, although inferior to #4 polypeptide; also recorded: inhibited the cleavage activity of β-secretase against APP in a concentration-dependent manner; amount of NICD in the cell lysate [6]: did not decrease
